Results taken from the supplement of paper PMC11451515.

Tested on: NOMO1
Test: cell viability relative to DMSO control; higher = less cytotoxic
Settings: 48 h
Method in brief: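 Viability is expressed as a percentage of DMSO wells within each plate, and cell-free wells serve as background. Seeding densities in the 1536-well plates (5 μl) were 500 cells/well for NOMO1 or SEM leukemia cells and 1000 cells/well for P12-Ichikawa. Each line was adapted for at least four passages in each medium. Library compounds in DMSO were pin-dosed at 47 μM to 0.79 nM (11 points, threefold), and CellTiter-Glo One luminescence was read after 48 h at 37°C.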

[1] = HPLM + 10% dialyzed FBS, 0.000781 µM
[2] = HPLM + 10% dialyzed FBS, 0.00234 µM
[3] = HPLM + 10% dialyzed FBS, 0.00702 µM
[4] = HPLM + 10% dialyzed FBS, 0.0211 µM
[5] = HPLM + 10% dialyzed FBS, 0.0632 µM
[6] = HPLM + 10% dialyzed FBS, 0.19 µM
[7] = HPLM + 10% dialyzed FBS, 0.569 µM
[8] = HPLM + 10% dialyzed FBS, 1.71 µM
[9] = HPLM + 10% dialyzed FBS, 5.12 µM
[10] = HPLM + 10% dialyzed FBS, 15.4 µM
[11] = HPLM + 10% dialyzed FBS, 46.1 µM
[12] = RPMI 5 mM glucose + 10% FBS, 0.000781 µM
[13] = RPMI 5 mM glucose + 10% FBS, 0.00234 µM
[14] = RPMI 5 mM glucose + 10% FBS, 0.00702 µM
[15] = RPMI 5 mM glucose + 10% FBS, 0.0211 µM
[16] = RPMI 5 mM glucose + 10% FBS, 0.0632 µM
[17] = RPMI 5 mM glucose + 10% FBS, 0.19 µM
[18] = RPMI 5 mM glucose + 10% FBS, 0.569 µM
[19] = RPMI 5 mM glucose + 10% FBS, 1.71 µM
[20] = RPMI 5 mM glucose + 10% FBS, 5.12 µM
[21] = RPMI 5 mM glucose + 10% FBS, 15.4 µM
[22] = RPMI 5 mM glucose + 10% FBS, 46.1 µM
[23] = RPMI 5 mM glucose + 10% dialyzed FBS, 0.000781 µM
[24] = RPMI 5 mM glucose + 10% dialyzed FBS, 0.00234 µM
[25] = RPMI 5 mM glucose + 10% dialyzed FBS, 0.00702 µM
[26] = RPMI 5 mM glucose + 10% dialyzed FBS, 0.0211 µM
[27] = RPMI 5 mM glucose + 10% dialyzed FBS, 0.0632 µM
[28] = RPMI 5 mM glucose + 10% dialyzed FBS, 0.19 µM
[29] = RPMI 5 mM glucose + 10% dialyzed FBS, 0.569 µM
[30] = RPMI 5 mM glucose + 10% dialyzed FBS, 1.71 µM
[31] = RPMI 5 mM glucose + 10% dialyzed FBS, 5.12 µM
[32] = RPMI 5 mM glucose + 10% dialyzed FBS, 15.4 µM
[33] = RPMI 5 mM glucose + 10% dialyzed FBS, 46.1 µM

SMILES | cell viability [1] | cell viability [2] | cell viability [3] | cell viability [4] | cell viability [5] | cell viability [6] | cell viability [7] | cell viability [8] | cell viability [9] | cell viability [10] | cell viability [11] | cell viability [12] | cell viability [13] | cell viability [14] | cell viability [15] | cell viability [16] | cell viability [17] | cell viability [18] | cell viability [19] | cell viability [20] | cell viability [21] | cell viability [22] | cell viability [23] | cell viability [24] | cell viability [25] | cell viability [26] | cell viability [27] | cell viability [28] | cell viability [29] | cell viability [30] | cell viability [31] | cell viability [32] | cell viability [33]
OC[C@H]1O[C@@H]2[C@@H](OC\3=N\C(=N)\C=C/[N@@]23)[C@@H]1O | 103% | 129% | 125% | 114% | 130% | 129% | 109% | 62.6% | 30.4% | 19.8% | 6.81% | 119% | 122% | 112% | 111% | 119% | 125% | 130% | 103% | 33.7% | 22% | 8.44% | 116% | 122% | 120% | 106% | 118% | 125% | 90.5% | 67.1% | 23.3% | 16.8% | 9.9%
OCCC#Cc1nc(-c2ccc(F)cc2)c(-c2ccncc2)n1CCCc1ccccc1 | – | – | – | – | – | – | – | – | – | – | – | 119% | 122% | 122% | 135% | 127% | 138% | 150% | 136% | 128% | 132% | 116% | – | – | – | – | – | – | – | – | – | – | –
CN(C)CCN1C(=O)c2cccc3cc(N)cc(c23)C1=O | 116% | 122% | 118% | 125% | 118% | 147% | 118% | 123% | 93.7% | 72.3% | 26.7% | 93.3% | 108% | 135% | 108% | 121% | 121% | 132% | 102% | 105% | 59.3% | 13.1% | 99.2% | 110% | 108% | 111% | 118% | 118% | 111% | 108% | 97.3% | 73.6% | 23.9%
N[S+](=O)([O-])OC[C@@H]1C[C@@H](n2ccc3c(N[C@H]4CCc5ccccc54)ncnc32)C[C@@H]1O | 103% | 118% | 114% | 111% | 110% | 107% | 70.8% | 26.6% | 16.6% | 14.3% | 18.7% | 96.2% | 110% | 92.4% | 113% | 118% | 92.6% | 57.7% | 12.4% | 10.8% | 8.04% | 8.01% | 111% | 97.4% | 104% | 104% | 121% | 103% | 59.8% | 26.7% | 18.5% | 13% | 10.8%
CC/1=C(/N2[C@H](SC1)[C@H](NC(=O)C(N)C3=CC=CC=C3)C2=O)C(O)=O (stereo partly drawn) | 106% | 118% | 118% | 137% | 135% | 136% | 145% | 152% | 137% | 106% | 141% | – | – | – | – | – | – | – | – | – | – | – | 109% | 135% | 123% | 148% | 145% | 132% | 149% | 137% | 154% | 146% | 130%
CC(C)Oc1ccc(C(=O)N[C@H](CNC(=O)CN(C)C)Cc2ccc(-c3cn4cccc([C@H](C)O)c4n3)cc2)cc1Cl | 123% | 131% | 108% | 123% | 103% | 99.8% | 113% | 32.6% | 33.1% | 23.6% | 32.5% | 104% | 107% | 112% | 113% | 113% | 98.5% | 87% | 24.8% | 19.7% | 14.6% | 21.6% | 107% | 124% | 112% | 125% | 113% | 109% | 100% | 39.4% | 25.6% | 20.1% | 24.8%
COc1cccc2c1CCCC2CCCN1CCN(C2CCCCC2)CC1 (stereo not drawn) | 97.9% | 105% | 99.9% | 106% | 114% | 138% | 111% | 105% | 96.7% | 99.7% | 57% | 102% | 107% | 109% | 100% | 99.5% | 103% | 103% | 94% | 96.2% | 89.7% | 66.2% | 89.2% | 100% | 98% | 92.7% | 93.1% | 104% | 92.9% | 94.8% | 109% | 87.9% | 58%
c1ccc(-c2oc3ncnc(NC[C@@H]4CCCO4)c3c2-c2ccccc2)cc1 | 114% | 113% | 134% | 113% | 134% | 128% | 123% | 126% | 112% | 103% | 62% | 102% | 110% | 112% | 114% | 120% | 120% | 117% | 109% | 110% | 112% | 63.8% | – | – | – | – | – | – | – | – | – | – | –
COc1cc(/C=C/C(=O)O)ccc1O | 76.1% | 90.7% | 91.8% | 100% | 107% | 100% | 103% | 98.8% | 82.6% | 108% | 101% | 84.9% | 112% | 87.8% | 93.6% | 95.2% | 101% | 92.2% | 95.1% | 107% | 96.6% | 104% | 84.3% | 91% | 93.9% | 93.1% | 83.7% | 96.3% | 95.7% | 86.9% | 89.9% | 92.5% | 102%
